Experimental data taken from patent US20150141473A1, “PHARMACEUTICAL DOSAGE FORMS OF TIZANIDINE AND ADMINISTRATION ROUTES THEREOF” (priority 2012, published 2015).
Where a name gives a salt, the structure may show the parent alone.

Assays:
[1] = rabbits, 3.00 mg/kg of tizanidine hydrochloride, preliminary
[2] = background, cited from earlier work
[3] = animal data, local administration; cited from earlier work
[4] = aqueous solution 45.00 mg/mL, pH 4.8
Description: The proposed formulations are calculated for a single puff of 50 μL/nostril.

[5] = pH of the formulations / aqueous solutions; type: physicochemical; settings: aqueous solutions without buffer
[6] = highest concentration, 14 days of treatment tid in rabbits
[7] = Human absorption: Tizaspray intranasally vs Sirdalud tablets, randomised cross-over, plasma levels of tizanidine by LC/MS/MS over 12 hours; settings: highest concentration, single administration in humans
Description: The plasma levels of tizanidine were determined by LC/MS/MS over 12 hours from the administration.
R=Sirdalud tablet; T1=1*70 μL/puff by intranasal route; T2=2*70 μL/puff by intranasal route.

Row | SMILES | bioavailability by intranasal route ([1]; IN vs IM) | intranasal absorption ([1]; IN, without any enhancer) | absorption by oral route ([2]; 2 or 4 mg tablets) | T1/2z ([2]; known pharmacokinetic profile) | Tmax ([2]; known pharmacokinetic profile) | first-pass effect ([2]; oral route) | activity compared with clonidine [3] | tolerability on the nasal mucosa (redness or pain) [4] | pH of aqueous solutions [5] | tolerability on the nasal mucosa [6] | absorption by intranasal route [7]
1 | Clc1ccc2nsnc2c1NC1=NCCN1 [Tizanidine, 5-chloro-N-(4,5-dihydro-1H-imidazol-2-yl)-2,1,3-benzothia-diazol-4-amine] | close to that of intramuscular route (IM) | rapidly absorbed | well and rapidly absorbed by oral route | 1 to 2 h | 1 to 2 h | extensive first-pass effect | equivalent activity of tizanidine and clonidine | – | – | – | –
2 | Clc1ccc2nsnc2c1NC1=NCCN1 [tizanidine hydrochloride] | – | – | – | – | – | – | – | tolerated by the nasal mucosa without any local side effect | 4.8 | well tolerated on the nasal mucosa | rapidly and completely absorbed
